# Data from PMC8298602, “14-3-3-protein regulates Nedd4-2 by modulating interactions between HECT and WW domains” (Communications Biology, 2021).
# Key:
# [1] = tested on: all human 14-3-3 protein isoforms; experiment: fluorescence polarization (FP), all seven 14-3-3 isoforms (results in words); assay type: binding; conditions: 50 nM FITC-labelled peptide, 14-3-3 isoforms from 80 μM
# Description: Fig. 4 14-3-3 isoform binding specificity of Nedd4-2 phosphomotifs. Binding of FITC-labeled phosphopeptides with 14-3-3 binding motifs of Nedd4-2 (pSer^342, pThr^367 or pSer^448) to all human 14-3-3 isoforms was characterized by FP titrations. The binding affinities of these peptides were determined by fitting FP data to a one-site binding model. The corresponding sequences of these peptides are shown at the top. Background polarization was subtracted from all values. Results are expressed as mean ± SD (n = 3). Error bars are not visible if they are smaller than the size of the symbol.
# The FP assay was performed using a CLARIOstar microplate reader (BMG Labtech, […]) on 384-well black low-volume flat-bottom plates (Corning, New York, USA) in a buffer containing 10 mM HEPES (pH 7.4), 150 mM NaCl, 0.1% (v/v) Tween 20 and 0.1% (w/v) BSA. […] The excitation and emission wavelengths were 482 nm and 530 nm, respectively. The KD values were determined as the mean of three independent measurements using GraphPad Prism version 8.0.1 for Windows, GraphPad Software, La Jolla California USA, www.graphpad.com.
# (§1) Results from the FP assay (Fig. 4) and immunoblot (Supplementary Fig. S1) are represented as means ± SD from three replicates as indicated in the figure legend. Statistical analysis for the data from immunoblot were performed using Graph-Pad Prism 8.4. Student’s t-test was used for comparison of relative changes of samples with and without 14-3-3η at selected timepoints (ns, non-significant P > 0.05; *, P < 0.05).
# [2] = tested on: Nedd4-2^186–975; experiment: auto-ubiquitination (Ub chain formation) assay, immunoblot; assay type: biochemical, human; conditions: for Difference (no 14-3-3 minus with 14-3-3): normalized means; for effect on auto-ubiquitination of Nedd4-2^186–975 (in words): Nedd4-2^186–975 with 14-3-3, 1:2 molar ratio, 30 °C
# Description: For in vitro ubiquitination assays, 5 µg of human Ub, 50 ng of E1 (mouse Uba1), 200 ng of E2 (mouse Ube2d2) and 500 ng of E3 (phosphorylated Nedd4-2^186–975) were incubated in 30 µl of the reaction mixture in a buffer containing 50 mM Tris pH 7.5, 2 mM ATP, 5 mM MgCl2 and 2 mM DTT and incubated for 5, 10 and 15 min at 30 °C. The reactions were stopped by adding 5 × SDS-PAGE loading buffer (250 mM Tris pH 6.8, 50% glycerol, 500 mM DTT and 10% SDS) and incubating at 95 °C for 3 minutes to denaturate the samples. For reactions with 14-3-3η, Nedd4-2^186–975 was mixed with 14-3-3η in a 1:2 molar ratio and incubated for 30 minutes on ice before starting the reaction. In addition, 20 µl of reaction was separated by conventional SDS-PAGE on a 10% acrylamide gel and electro-blotted against a PVDF membrane in 20 mM Tris pH 7.5, 154 mM glycin and 10% methanol buffer overnight at 4 °C. Rabbit anti-Ub polyclonal antibody (Enzo) and anti-rabbit IgG, HRP-linked Antibody (Cell Signaling Technology) were used to visualize the transferred polyubiquitin chains. Chemiluminescence was induced by ECL and detected using Fusion Solo S (Vilber). The detected bands of E3-Ub were quantitated using the Image Lab software (Bio-Rad).
# as §1
# Supplementary Fig. S1. 14-3-3 slows down the auto-ubiquitination of Nedd4- 2186-975. a Purity and integrity of the samples used in the Ub chain formation assay. The samples were resolved by 10% Tris/Glycine SDS-PAGE and stained with Coomassie G-250. b Ubiquitin (Ub) chain formation assay with and without 14-3-3ε and the representative immunoblot of Ub. Black rectangles denote the borders of the sample zones that were quantified. The presence of ubiquitinated Nedd4-2 in the quantified zones was confirmed by LC-MS analysis. c Relative abundances of ubiquitinated Nedd4-2186-975 with and without 14-3-3η based on the immunoblot of Ub. Error bars represent the standard deviation of three independent experiments. Results show the data distribution. Asterisks represent significant differences according to unpaired Student’s t-tests comparing relative change between samples without and with 14-3-3ε at selected timepoints (ns, non-significant P > 0.05; *, P < 0.05).
# (1 picture or pasted object on this page, not shown here)
substance,measurement,setting,value
FITC-PRSLpSSPTVT [pep-S342],binding to 14-3-3 isoforms (in words),[1],measurable binding affinity only to 14-3-3σ
FITC-LRSCpSVTDAV [pep-S448],binding to 14-3-3 isoforms (in words),[1],binds to all 14-3-3 isoforms in the low micromolar range
"14-3-3η: 14-3-3 protein eta isoform, stable dimer, known Nedd4-2 binding partner",Difference (no 14-3-3 minus with 14-3-3),[2]; 5 min,0.1757
same,relative abundance of ubiquitinated Nedd4-2^186–975,"[2]; 5 min, with 14-3-3, mean of n = 3, normalized (mean without 14-3-3 = 1), listed as 14-3-3",0.8243
same,relative abundance of ubiquitinated Nedd4-2^186–975,"[2]; 5 min, with 14-3-3, mean of n = 3, normalized (mean without 14-3-3 = 1), listed as 1433",0.8243
same,abundance of ubiquitinated Nedd4-2^186–975,"[2]; 5 min, with 14-3-3, mean of n = 3, not normalized",1.509
same,relative abundance of ubiquitinated Nedd4-2^186–975,"[2]; 5 min, with 14-3-3, replicate 1, normalized (mean without 14-3-3 = 1)",0.8139
same,abundance of ubiquitinated Nedd4-2^186–975,"[2]; 5 min, with 14-3-3, replicate 1, not normalized",1.49
same,relative abundance of ubiquitinated Nedd4-2^186–975,"[2]; 5 min, with 14-3-3, replicate 2, normalized (mean without 14-3-3 = 1)",1.075
same,abundance of ubiquitinated Nedd4-2^186–975,"[2]; 5 min, with 14-3-3, replicate 2, not normalized",1.967
same,relative abundance of ubiquitinated Nedd4-2^186–975,"[2]; 5 min, with 14-3-3, replicate 3, normalized (mean without 14-3-3 = 1)",0.5843
same,abundance of ubiquitinated Nedd4-2^186–975,"[2]; 5 min, with 14-3-3, replicate 3, not normalized",1.069
same,Difference (no 14-3-3 minus with 14-3-3),[2]; 10 min,0.2602
same,relative abundance of ubiquitinated Nedd4-2^186–975,"[2]; 10 min, with 14-3-3, mean of n = 3, normalized (mean without 14-3-3 = 1), listed as 14-3-3",0.7398
same,relative abundance of ubiquitinated Nedd4-2^186–975,"[2]; 10 min, with 14-3-3, mean of n = 3, normalized (mean without 14-3-3 = 1), listed as 1433",0.7398
same,abundance of ubiquitinated Nedd4-2^186–975,"[2]; 10 min, with 14-3-3, mean of n = 3, not normalized",2.393
same,relative abundance of ubiquitinated Nedd4-2^186–975,"[2]; 10 min, with 14-3-3, replicate 1, normalized (mean without 14-3-3 = 1)",0.713
same,abundance of ubiquitinated Nedd4-2^186–975,"[2]; 10 min, with 14-3-3, replicate 1, not normalized",2.306
same,relative abundance of ubiquitinated Nedd4-2^186–975,"[2]; 10 min, with 14-3-3, replicate 2, normalized (mean without 14-3-3 = 1)",0.8702
same,abundance of ubiquitinated Nedd4-2^186–975,"[2]; 10 min, with 14-3-3, replicate 2, not normalized",2.814
same,relative abundance of ubiquitinated Nedd4-2^186–975,"[2]; 10 min, with 14-3-3, replicate 3, normalized (mean without 14-3-3 = 1)",0.6363
same,abundance of ubiquitinated Nedd4-2^186–975,"[2]; 10 min, with 14-3-3, replicate 3, not normalized",2.058
same,Difference (no 14-3-3 minus with 14-3-3),[2]; 15 min,0.2943
same,relative abundance of ubiquitinated Nedd4-2^186–975,"[2]; 15 min, with 14-3-3, mean of n = 3, normalized (mean without 14-3-3 = 1), listed as 14-3-3",0.7057
same,relative abundance of ubiquitinated Nedd4-2^186–975,"[2]; 15 min, with 14-3-3, mean of n = 3, normalized (mean without 14-3-3 = 1), listed as 1433",0.7057
same,abundance of ubiquitinated Nedd4-2^186–975,"[2]; 15 min, with 14-3-3, mean of n = 3, not normalized",3.153
same,relative abundance of ubiquitinated Nedd4-2^186–975,"[2]; 15 min, with 14-3-3, replicate 1, normalized (mean without 14-3-3 = 1)",0.7206
same,abundance of ubiquitinated Nedd4-2^186–975,"[2]; 15 min, with 14-3-3, replicate 1, not normalized",3.22
same,relative abundance of ubiquitinated Nedd4-2^186–975,"[2]; 15 min, with 14-3-3, replicate 2, normalized (mean without 14-3-3 = 1)",0.776
same,abundance of ubiquitinated Nedd4-2^186–975,"[2]; 15 min, with 14-3-3, replicate 2, not normalized",3.467
same,relative abundance of ubiquitinated Nedd4-2^186–975,"[2]; 15 min, with 14-3-3, replicate 3, normalized (mean without 14-3-3 = 1)",0.6205
same,abundance of ubiquitinated Nedd4-2^186–975,"[2]; 15 min, with 14-3-3, replicate 3, not normalized",2.772
same,effect on auto-ubiquitination of Nedd4-2^186–975 (in words),[2],reduced
same,effect on auto-ubiquitination of Nedd4-2^186–975 (in words),[2]; listed as 14-3-3,slows down
FITC-ARSSpTVTGGE [pep-T367],binding to 14-3-3 isoforms (in words),[1],"very weak, to all 14-3-3 isoforms except ε and σ"
